Data published in patent publication US11673891B2, “Imidazopyrimidine compounds and uses thereof” (Dana-Farber Cancer Institute, Inc., priority 2017, dated 2023).

System: human adult PBMCs
Assay: TNF production by ELISA after stimulation of human adult PBMCs
Type: cell-based
Details: adult PBMCs, 33 μM, 18 hours; for TNF (Median): ELISA, unit not given (FIG. 6B/7B legends: TNF concentration in ng/ml); for TNF (Median) / TNF % (Median): N=3-5; for Activity class: class according to TNF % as compared to R848; for TNF % (Median): median percentage TNF production as compared to R848
Experimental: Table 1. Activity of Exemplary Imidazopyrimidine Compounds on Stimulating TNF Production in PBMCs as Compared to Compound R848 Table 1 provides the activity of exemplary compounds on stimulating TNF production in PBMCs as compared to the benchmark compound R848. Specifically, TNF production was measured by ELISA after stimulation of adult PBMCs with compound 037 analog family or the compound R848 at 33 μM for 18 hours. Analogs are ranked top to bottom by median percentage TNF production (TNF %) as compared to R848 (N=3-5). The compounds have been classified in the following categories according to TNF %: high activity—class A: TNF %>15%; medium activity—class B: 1%<TNF %≤15%; low activity—class C: TNF %≤1%.
ELISAs and Multiplex-Analyte Assays. Supernatants derived from human PBMCs and DC stimulations were assayed by ELISA for TNF (ThermoFisher Scientific; Waltham, Mass., USA). Cytokine and chemokine expression profiles (e.g., IFNγ, IL-9, IL-10, IL-12 (p70), IL-13, IL-1β, IL-23, IL-27, IL-28A, IL-33, IL-6, MIP-3α/CCL20, and TNF) in cell culture supernatants were measured using a customized Milliplex® Human Th17 Magnetic Bead Panel according to the manufacturer's instructions (Millipore, Chicago, Ill., USA). Assays were read and analyzed on the Luminex® 100/200™ System and xPOTENT® software (Luminex, Austin, Tex.). A minimum threshold was set at the minimum detectable concentration for each individual assay, defined as three standard deviations above the mean background.
PBMCs were isolated from blood using a Ficoll density gradient. PBMCs either used fresh or were stored at 5×10^7 cells per vial in 1 mL RPMI containing 20% autologous plasma and 10% DMSO at −80° C. until use. Stimulation plates were prepared by transferring 0.66 μl of DMSO-dissolved compounds (10 mM) to each well of a round bottom 96-well plate. PBMCs isolated from human adult donors were resuspended at a concentration of 10^5 cells/200 μl of RPMI supplemented with 10% of platelet-poor plasma. 200 μl of the cell suspension were transferred to each well resulting in a final compound concentration of […]. After about 18 hours of incubation (37° C., 5% CO2), plates were spun down (500×g, room temperature, 5 minutes) and supernatants were harvested for further analysis.

Compound	TNF (Median)	Activity class	TNF % (Median) [%]
Cc1ccc(-c2cn3cccnc3n2)cc1NC(=O)c1ccccc1Br [Example 37.16]	3.5625	A (high activity—class A: TNF %>15%)	90.17
Cc1ccc(-c2cn3cccnc3n2)cc1NC(=O)c1ccccc1C [Example 37.17]	0.865	A (high activity—class A: TNF %>15%)	20.64
Cc1ccc(-c2cn3cccnc3n2)cc1NC(=O)c1ccccc1Cl [Example 37.33]	0.288	A (high activity—class A: TNF %>15%)	22.94
Cc1ccc(-c2cn3cccnc3n2)cc1NC(=O)c1ccccc1C(F)(F)F [Example 37.37]	3.73	A (high activity—class A: TNF %>15%)	71.12
Cc1ccc(-c2cn3cccnc3n2)cc1NC(=O)Cc1ccccc1 [FRF-02-103]	0.008	C (low activity—class C: TNF %≤1%)	0.18
Cc1ccc(-c2cn3cc(F)cnc3n2)cc1NC(=O)c1ccccc1Cl [FRF-02-115]	0.0625	B (medium activity—class B: 1%<TNF %≤15%)	2.42
Cc1ccc(-c2cn3cc(F)cnc3n2)cc1NC(=O)c1ccccc1Br [FRF-02-116]	0.594	B (medium activity—class B: 1%<TNF %≤15%)	8.48
Cc1ccc(-c2cn3cc(F)cnc3n2)cc1NC(=O)c1ccccc1C [FRF-02-117]	0.138	B (medium activity—class B: 1%<TNF %≤15%)	3.06
Cc1ccc(-c2cn3cc(F)cnc3n2)cc1NC(=O)c1ccccc1C(F)(F)F [FRF-02-118]	1.8795	A (high activity—class A: TNF %>15%)	43.53
CCC(C(=O)Nc1cc(-c2cn3cc(F)cnc3n2)ccc1C)c1ccccc1 (stereo not drawn) [FRF-02-119, N-(5-(6-Fluoroimidazo[1,2-a]pyrimidin-2-yl)-2-methylphenyl)-2-phenylbutanamide]	0.219	B (medium activity—class B: 1%<TNF %≤15%)	4.35
COc1cnc2nc(-c3ccc(C)c(NC(=O)c4ccccc4Cl)c3)cn2c1 [FRF-02-131]	0.008	C (low activity—class C: TNF %≤1%)	0.18
COc1cnc2nc(-c3ccc(C)c(NC(=O)c4ccccc4Br)c3)cn2c1 [FRF-02-132]	0.008	C (low activity—class C: TNF %≤1%)	0.18
COc1cnc2nc(-c3ccc(C)c(NC(=O)c4ccccc4C)c3)cn2c1 [FRF-02-134]	0.008	C (low activity—class C: TNF %≤1%)	0.18
COc1cnc2nc(-c3ccc(C)c(NC(=O)c4ccccc4C(F)(F)F)c3)cn2c1 [FRF-02-135]	0.0705	B (medium activity—class B: 1%<TNF %≤15%)	1.60
CCC(C(=O)Nc1cc(-c2cn3cc(OC)cnc3n2)ccc1C)c1ccccc1 (stereo not drawn) [FRF-02-137]	0.04	B (medium activity—class B: 1%<TNF %≤15%)	1.27
CCC(C(=O)Nc1cc(-c2cn3cc(C)cnc3n2)ccc1C)c1ccccc1 (stereo not drawn) [FRF-02-144-1, N-(2-Methyl-5-(6-methylimidazo[1,2-a]pyrimidin-2-yl)phenyl)-2-phenylbutanamide]	3.144	A (high activity—class A: TNF %>15%)	55.24
Cc1cnc2nc(-c3ccc(C)c(NC(=O)c4ccccc4Cl)c3)cn2c1 [FRF-02-144-2]	2.5245	A (high activity—class A: TNF %>15%)	104.32

Compound	TNF (Median)	Activity class	TNF % (Median) [%]
Cc1cnc2nc(-c3ccc(C)c(NC(=O)Cc4ccccc4)c3)cn2c1 [FRF-02-162-1]	0.008	C (low activity—class C: TNF %≤1%)	0.42
Cc1cnc2nc(-c3ccc(C)c(NC(=O)c4ccccc4C)c3)cn2c1 [FRF-02-162-2]	0.309	B (medium activity—class B: 1%<TNF %≤15%)	6.34
Cc1ccc(-c2cn3cc(F)cnc3n2)cc1NC(=O)c1cc(F)ccc1C(F)(F)F [FRF-02-166]	2.0745	A (high activity—class A: TNF %>15%)	53.91
Cc1ccc(-c2cn3cc(F)cnc3n2)cc1NC(=O)c1ccc(F)cc1C(F)(F)F [FRF-02-167]	1.101	A (high activity—class A: TNF %>15%)	51.62
Cc1ccc(-c2cn3cc(F)cnc3n2)cc1NC(=O)c1ccc(Cl)cc1C(F)(F)F [FRF-02-169]	0.008	C (low activity—class C: TNF %≤1%)	0.18
Cc1ccc(C(=O)Nc2cc(-c3cn4cc(F)cnc4n3)ccc2C)c(C(F)(F)F)c1 [FRF-02-171]	2.1615	A (high activity—class A: TNF %>15%)	65.93
CCC(C(=O)Nc1cc(-c2cn3cc(C)cnc3n2)ccc1Cl)c1ccccc1 (stereo not drawn) [FRF-02-174-1]	0.924	A (high activity—class A: TNF %>15%)	35.71
Cc1cnc2nc(-c3ccc(Cl)c(NC(=O)c4ccccc4C(F)(F)F)c3)cn2c1 [FRF-02-174-2]	0.1455	B (medium activity—class B: 1%<TNF %≤15%)	13.99
Cc1ccc(-c2cn3cc(F)cnc3n2)cc1NC(=O)c1c(F)cccc1C(F)(F)F [FRF-02-175]	0.063	B (medium activity—class B: 1%<TNF %≤15%)	1.43
COc1ccc(C(=O)Nc2cc(-c3cn4cc(F)cnc4n3)ccc2C)c(C)c1 [FRF-02-176]	0.087	B (medium activity—class B: 1%<TNF %≤15%)	3.81
COc1ccc(C(=O)Nc2cc(-c3cn4cccnc4n3)ccc2C)c(C)c1 [FRF-02-182]	0.008	C (low activity—class C: TNF %≤1%)	0.39
COc1ccc(C)c(C(=O)Nc2cc(-c3cn4cccnc4n3)ccc2C)c1 [FRF-02-183]	0.008	C (low activity—class C: TNF %≤1%)	0.77
COc1ccc(C)c(C(=O)Nc2cc(-c3cn4cc(F)cnc4n3)ccc2C)c1 [FRF-02-187]	1.191	A (high activity—class A: TNF %>15%)	31.32
Cc1ccc(-c2cn3cccnc3n2)cc1NC(=O)C(CO)c1ccccc1 (stereo not drawn) [FRF-02-193]	2.997	A (high activity—class A: TNF %>15%)	91.73
Cc1ccc(-c2cn3cc(F)cnc3n2)cc1NC(=O)C(CO)c1ccccc1 (stereo not drawn) [FRF-02-194]	0.008	C (low activity—class C: TNF %≤1%)	0.18
Cc1ccc(-c2cn3cc(F)cnc3n2)cc1NC(=O)C(C)c1ccccc1 (stereo not drawn) [FRF-03-081]	0.3195	B (medium activity—class B: 1%<TNF %≤15%)	7.51
Cc1ccc(-c2cn3cc(F)cnc3n2)cc1NC(=O)C(C)(C)c1ccccc1 [FRF-03-084-1]	0.24	B (medium activity—class B: 1%<TNF %≤15%)	6.00
